In the assay the target is T1, human PDE10A (Homo sapiens, UniProt Q9Y233).
T1 construct: The human PDE10A full length assay; purchased Enzo Life Science, Lausen, Switzerland SE-534
T1 sequence (Q9Y233 1-779 isoform Q9Y233-1): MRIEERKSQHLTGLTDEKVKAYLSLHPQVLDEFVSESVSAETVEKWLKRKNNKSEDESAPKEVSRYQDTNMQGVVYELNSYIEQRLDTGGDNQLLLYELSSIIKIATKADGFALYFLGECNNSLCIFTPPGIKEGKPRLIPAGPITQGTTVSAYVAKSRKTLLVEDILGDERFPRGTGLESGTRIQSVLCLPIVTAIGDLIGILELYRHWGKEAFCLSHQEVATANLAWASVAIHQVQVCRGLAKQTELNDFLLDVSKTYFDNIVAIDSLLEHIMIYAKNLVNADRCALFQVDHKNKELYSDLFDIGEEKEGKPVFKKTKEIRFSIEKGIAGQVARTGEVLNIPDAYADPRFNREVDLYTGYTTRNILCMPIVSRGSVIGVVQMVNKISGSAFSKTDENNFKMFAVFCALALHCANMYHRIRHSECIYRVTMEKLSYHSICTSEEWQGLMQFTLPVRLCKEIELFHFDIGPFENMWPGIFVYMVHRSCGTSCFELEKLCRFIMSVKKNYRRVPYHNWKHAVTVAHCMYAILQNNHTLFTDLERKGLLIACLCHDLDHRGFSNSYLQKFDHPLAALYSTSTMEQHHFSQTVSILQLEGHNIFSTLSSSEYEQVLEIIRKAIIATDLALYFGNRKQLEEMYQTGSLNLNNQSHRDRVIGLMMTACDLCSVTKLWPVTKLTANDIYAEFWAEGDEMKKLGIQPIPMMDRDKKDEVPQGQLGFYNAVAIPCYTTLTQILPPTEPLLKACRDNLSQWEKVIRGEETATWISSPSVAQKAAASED
Description: human PDE10A full length Scintillation Proximity Assay (SPA). The assay is classed as biochemical. The note with it: 50 nM cGMP and 50 nM [3H]-cGMP, 20 minutes at room temperature; read-out: PDE10A inhibition IC50. The method in brief:
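Full-length enzyme at 3.75 ng/well in 20 mM HEPES pH 7.5, 10 mM MgCl2, 0.05 mg/ml BSA, with 50 nM cGMP plus 50 nM [3H]-cGMP substrate, 20 min at room temperature. Stopped with YSi-SPA beads in zinc sulphate and counted by scintillation. IC50 from inhibitor concentration series; no-enzyme wells define background.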
By IC50 is commonly meant the concentration that inhibits the measured activity by half. Take `CN(CCF)C(=O)c1cnn(C)c1C(=O)Nc1ccn2cc(-c3cccc(F)c3)nc2n1` [Example 104, 2-Methyl-2H-pyrazole-3,4-dicarboxylic acid 4-[(2-fluoro-ethyl)-methyl-amide]3-{[2-(3-fluoro-phenyl)-imidazo[1,2-a]pyrimidin-7-yl]-amide}]: the IC50 amounted to 0.0296 µM.

Consider `Cn1ncc(C(=O)NCc2cc(C3CC3)[nH]n2)c1C(=O)Nc1ccn2cc(-c3ccccc3)nc2n1` [Example 152, N4-((5-cyclopropyl-1H-pyrazol-3-yl)methyl)-1-methyl-N5-(2-phenylimidazo[1,2-a]pyrimidin-7-yl)-1H-pyrazole-4,5-dicarboxamide], for which the IC50 came to 0.302 µM. `Cn1cc2c(n1)CN(C(=O)c1cnn(C)c1C(=O)Nc1ccn3cc(-c4ccccc4)nc3n1)C2` [Example 169, 1-methyl-4-(2-methyl-2,4,5,6-tetrahydropyrrolo[3,4-c]pyrazole-5-carbonyl)-N-(2-phenylimidazo[1,2-a]pyrimidin-7-yl)-1H-pyrazole-5-carboxamide]: the IC50 turned out to be 0.963 µM. In the case of `CC(C)N(C)C(=O)c1cnn(C)c1C(=O)Nc1ccn2cc(-c3ccccc3)nc2n1` [Example 54, 2-Methyl-2H-pyrazole-3,4-dicarboxylic acid 4-(isopropyl-methyl-amide) 3-[(2-phenyl-imidazo[1,2-a]pyrimidin-7-yl)-amide]], the IC50 was found to be 0.0343 µM. `Cn1ncc(Br)c1C(=O)Nc1ccn2cc(-c3ccccc3)nc2n1` [Example 6, 4-Bromo-2-methyl-2H-pyrazole-3-carboxylic acid (2-phenyl-imidazo[1,2-a]pyrimidin-7-yl)-amide]: the IC50 came out at 0.384 µM.

For the compound `CCCN(C)C(=O)c1cnn(C)c1C(=O)Nc1ccn2cc(-c3ccccc3)nc2n1` [Example 56, 2-Methyl-2H-pyrazole-3,4-dicarboxylic acid 4-(methyl-propyl-amide) 3-[(2-phenyl-imidazo[1,2-a]pyrimidin-7-yl)-amide]], the IC50 stood at 0.0173 µM. With `CC(=O)Oc1cccc(-c2cn3ccc(NC(=O)c4c(C(=O)N(C)C)cnn4C)nc3n2)c1` [Example 93, 3-(7-(4-(dimethylcarbamoyl)-1-methyl-1H-pyrazole-5-carboxamido)imidazo[1,2-a]pyrimidin-2-yl)phenyl acetate], the IC50 came to 0.0083 µM. The value for `CN(C)C(=O)c1cnn(C)c1C(=O)Nc1ccn2cc(-c3cccc(OCF)c3)nc2n1` [Example 88, 2-Methyl-2H-pyrazole-3,4-dicarboxylic acid 4-dimethylamide 3-{[2-(3-fluoromethoxy-phenyl)-imidazo[1,2-a]pyrimidin-7-yl]-amide}] was 0.0057 µM. Take `Cn1cc(C(=O)Nc2ccn3cc(-c4ccccc4)nc3n2)c(C(=O)N2CCC2)n1` [Example 66, 3-(Azetidine-1-carbonyl)-1-methyl-1H-pyrazole-4-carboxylic acid (2-phenyl-imidazo[1,2-a]pyrimidin-7-yl)-amide]: the IC50 amounted to 0.0115 µM. As for `Cn1ncc(C(=O)N2CCCC2)c1C(=O)Nc1ccn2cc(-c3ccccc3)nc2n1` [Example 48, 2-Methyl-4-(pyrrolidine-1-carbonyl)-2H-pyrazole-3-carboxylic acid (2-phenyl-imidazo[1,2-a]pyrimidin-7-yl)-amide], the IC50 worked out at 0.0035 µM.

For the compound `Cn1ncc(C(=O)NCCF)c1C(=O)Nc1ccn2cc(-c3ccccc3)nc2n1` [Example 123, N4-(2-fluoroethyl)-1-methyl-N5-(2-phenylimidazo[1,2-a]pyrimidin-7-yl)-1H-pyrazole-4,5-dicarboxamide], the IC50 turned out to be 0.0173 µM. Consider `COCCN(C)C(=O)c1cnn(C)c1C(=O)Nc1ccn2cc(-c3cccc(F)c3)nc2n1` [Example 107, 2-Methyl-2H-pyrazole-3,4-dicarboxylic acid 3-{[2-(3-fluoro-phenyl)-imidazo[1,2-a]pyrimidin-7-yl]-amide}4-[(2-methoxy-ethyl)-methyl-amide]], for which the IC50 is 0.0519 µM. `CN(CCO)C(=O)c1cnn(C)c1C(=O)Nc1ccn2cc(-c3ccccc3)nc2n1` [Example 53, 2-Methyl-2H-pyrazole-3,4-dicarboxylic acid 4-[(2-hydroxy-ethyl)-methyl-amide]3-[(2-phenyl-imidazo[1,2-a]pyrimidin-7-yl)-amide]]: the IC50 was found to be 0.0236 µM.

In the case of `Cn1ncc(C(=O)NCc2nnn[nH]2)c1C(=O)Nc1ccn2cc(-c3ccccc3)nc2n1` [Example 147, N4-((1H-tetrazol-5-yl)methyl)-1-methyl-N5-(2-phenylimidazo[1,2-a]pyrimidin-7-yl)-1H-pyrazole-4,5-dicarboxamide], the IC50 turned out to be 0.235 µM. The result for `CN(CCF)C(=O)c1cnn(C)c1C(=O)Nc1ccn2cc(-c3cccc(OCF)c3)nc2n1` [Example 108, 2-Methyl-2H-pyrazole-3,4-dicarboxylic acid 4-[(2-fluoro-ethyl)-methyl-amide]3-{[2-(3-fluoromethoxy-phenyl)-imidazo[1,2-a]pyrimidin-7-yl]-amide}] reads 0.0817 µM; that for `O=C(Nc1ccn2cc(-c3ccccc3)nc2n1)c1ccno1` [Example 2, Isoxazole-5-carboxylic acid (2-phenyl-imidazo[1,2-a]pyrimidin-7-yl)-amide], 0.951 µM; that for `C=CCn1ncc(C(=O)N2CCC2)c1C(=O)Nc1ccn2cc(-c3ccccc3)nc2n1` [Example 120, 1-allyl-4-(azetidine-1-carbonyl)-N-(2-phenylimidazo[1,2-a]pyrimidin-7-yl)-1H-pyrazole-5-carboxamide], 0.0137 µM. On to `O=C(Nc1ccn2cc(-c3ccccc3)nc2n1)c1nc(C2CC2)ccc1Nc1cncnc1` [Example 77, 6-Cyclopropyl-3-(pyrimidin-5-ylamino)-pyridine-2-carboxylic acid (2-phenyl-imidazo[1,2-a]pyrimidin-7-yl)-amide], for which the IC50 turned out to be 0.0063 µM. The value for `COc1cccc(-c2cn3ccc(NC(=O)c4c(C(=O)N5CCC5)cnn4C)nc3n2)c1` [Example 45, 4-(Azetidine-1-carbonyl)-2-methyl-2H-pyrazole-3-carboxylic acid [2-(3-methoxy-phenyl)-imidazo[1,2-a]pyrimidin-7-yl]-amide] was 0.0083 µM. The result for `Cn1ncc(C(=O)N2CCC2)c1C(=O)Nc1ccn2cc(-c3cccc(OCCF)c3)nc2n1` [Example 103, 4-(Azetidine-1-carbonyl)-2-methyl-2H-pyrazole-3-carboxylic acid {2-[3-(2-fluoro-ethoxy)-phenyl]imidazo[1,2-a]pyrimidin-7-yl}-amide] reads 0.0287 µM; that for `Cc1nc(CNC(=O)c2cnn(C)c2C(=O)Nc2ccn3cc(-c4ccccc4)nc3n2)no1` [Example 168, 1-methyl-N-4-((5-methyl-1,2,4-oxadiazol-3-yl)methyl)-N5-(2-phenylimidazo[1,2-a]pyrimidin-7-yl)-1H-pyrazole-4,5-dicarboxamide], 0.865 µM; that for `Cn1ncc(C(=O)NCc2cocn2)c1C(=O)Nc1ccn2cc(-c3ccccc3)nc2n1` [Example 112, 1-methyl-N4-(oxazol-4-ylmethyl)-N5-(2-phenylimidazo[1,2-a]pyrimidin-7-yl)-1H-pyrazole-4,5-dicarboxamide], 0.0013 µM. Consider `CN(C)C(=O)c1cnn(C)c1C(=O)Nc1ccn2cc(-c3cccc(OCCF)c3)nc2n1` [Example 102, 2-Methyl-2H-pyrazole-3,4-dicarboxylic acid 4-dimethylamide 3-({2-[3-(2-fluoro-ethoxy)-phenyl]-imidazo[1,2-a]pyrimidin-7-yl}-amide)], for which the IC50 was found to be 0.0279 µM.

Source of the values: US8410117B2, “Imidazopyrimidine derivatives” (Hoffmann-La Roche Inc., priority 2010, dated 2013).
